Data published in ChEMBL document CHEMBL2021830, “Chlorinated englerins with selective inhibition of renal cancer cell growth” (2012).

Assays:
Type in all cases: functional
786-0 = assay: Growth inhibition of human 786-0 cells after 48 hrs by SRB assay
A498 = assay: Growth inhibition of human A498 cells after 48 hrs
ACHN = assay: Growth inhibition of human ACHN cells after 48 hrs by SRB assay
CAKI-1 = assay: Growth inhibition of human CAKI-1 cells after 48 hrs by SRB assay
RXF 393 = assay: Growth inhibition of human RXF393 cells after 48 hrs by SRB assay
SN12C = assay: Growth inhibition of human SN12C cells after 48 hrs by SRB assay
TK-10 = assay: Growth inhibition of human TK10 cells after 48 hrs by SRB assay
UO-31 = assay: Growth inhibition of human UO31 cells after 48 hrs

Row | GI50 (786-0; Homo sapiens, 786-0, 48 h) | GI50 (ACHN; Homo sapiens, ACHN, 48 h) | SMILES | GI50 (786-0) | GI50 (A498) | GI50 (ACHN) | GI50 (CAKI-1) | GI50 (RXF 393) | GI50 (SN12C) | GI50 (TK-10) | GI50 (UO-31) | GI50 (A498; Homo sapiens, A498, 48 h) | GI50 (CAKI-1; Homo sapiens, CAKI-1, 48 h) | GI50 (RXF 393; Homo sapiens, RXF 393, 48 h) | GI50 (SN12C; Homo sapiens, SN12C, 48 h) | GI50 (TK-10; Homo sapiens, TK-10, 48 h) | GI50 (UO-31; Homo sapiens, UO-31, 48 h)
1 | – | – | CC(C)[C@@]12C[C@@H](OC(=O)CO)[C@@](C)(O1)[C@@H]1CC[C@@H](C)[C@H]1[C@@H]2OC(=O)C(Cl)C(O)c1ccccc1 (single isomer, unassigned) | 11 µM | 0.66 µM | 1.4 µM | 5 µM | 0.39 µM | 4.7 µM | 27 µM | 1.9 µM | – | – | – | – | – | –
2 | 10 µM | 0.041 µM | CC(C)[C@@]12C[C@@H](OC(=O)CO)[C@@](C)(O1)[C@@H]1CC[C@@H](C)[C@H]1[C@@H]2OC(=O)/C(Cl)=C/c1ccccc1 | – | – | – | – | – | – | – | – | 0.028 µM | 0.39 µM | 0.059 µM | 0.56 µM | 21 µM | 0.035 µM
3 | – | – | CC(C)[C@@]12C[C@@H](OC(=O)CO)[C@@](C)(O1)[C@@H]1CC[C@@H](C)[C@H]1[C@@H]2OC(=O)C(Cl)C(Cl)c1ccccc1 (single isomer, unassigned; epimer 2) | – | 0.067 µM | 0.049 µM | 0.16 µM | – | 1 µM | 25 µM | 0.16 µM | – | – | – | – | – | –
4 | 12 µM | – | CC(C)[C@@]12C[C@@H](OC(=O)CO)[C@@](C)(O1)[C@@H]1CC[C@@H](C)[C@H]1[C@@H]2OC(=O)C(Cl)C(Cl)c1ccccc1 (single isomer, unassigned; epimer 1) | – | 0.14 µM | 0.14 µM | 0.42 µM | – | – | – | 0.39 µM | – | – | – | 0.93 µM | 18 µM | –
5 | – | – | CC(C)[C@@]12C[C@@H](OC(=O)CO)[C@@](C)(O1)[C@@H]1CC[C@@H](C)[C@H]1[C@@H]2OC(=O)C(Cl)C(O)c1ccccc1 (single isomer, unassigned; epimer 1) | 1.7 µM | 0.18 µM | 0.32 µM | 0.46 µM | – | 0.63 µM | – | 0.25 µM | – | – | 0.51 µM | – | 17 µM | –
